Test results as given in article PMC2639596, “Antimicrobial peptides effectively kill a broad spectrum of Listeria monocytogenes and Staphylococcus aureus strains independently of origin, sub-type, or virulence factor expression” (BMC Microbiology, 2008).
Read-outs that look alike come from different tables or passages of the source.

What was measured:
Staphylococcus aureus = conditions: for MIC (MEC): radial diffusion, MHB/1% agarose, overnight, 37°C
Description: (§1) The MEC of HBD-3 was assayed on a sub-selection of strains using a radial diffusion assay with some modifications. In brief, MHB/1% agarose was supplemented with glucose to an end-concentration of 0.1% (w/V) to enhance the growth of L. monocytogenes and improve the visualization of the inhibition zones. […] Following solidification on a leveling table, 1 mm wells were punched with a Pasteur pipette. Two-fold dilutions of HBD-3 were prepared in 0.01% acetic acid/0.1% bovine serum albumin to a concentration range of 0.25–256 μg/ml and 2 μl was added to each well. […] Each strain was tested in two independent trials.
(§2) The bacteria were prepared and mixed with MHB/1% agarose as described above and 50 ml gel was poured into 140 mm Petri dishes. The gel was allowed to solidify and 3 mm wells were punched. […] The plates were incubated overnight at 37°C and the MEC was read as described above.

Listeria monocytogenes = conditions: for MIC (MEC): radial diffusion, MHB/1% agarose, overnight, 37°C
Description: as §1, §2

For `OO` [hydrogen peroxide], the “MEC values against S. aureus (range over strains)” value (Staphylococcus aureus) was 0.12–0.47 % (V/V), the “MIC (MEC)” value (Staphylococcus aureus; strain ΔdltA (Sa113 dltA ins)) was 0.23 % (V/V) and the “MIC (MEC)” value (Staphylococcus aureus; strain ΔmprF (Sa113 mprF del)) was 0.12 % (V/V). The “MEC values against L. monocytogenes (range over strains)” value (Listeria monocytogenes; radial diffusion assay, all strains tested) was 0.12–0.94 % (V/V), the “MIC (MEC)” value (Listeria monocytogenes; strain 2275 (EGD dps del)) was 0.94 % (V/V) and the “MIC (MEC)” value (Listeria monocytogenes; strain 2307 (EGD resD del)) was 0.12 % (V/V). For the same molecule, the “MIC (MEC)” value (Listeria monocytogenes; strain 2315 (EGD sigB del)) was 0.94 % (V/V), the “MIC (MEC)” value (Listeria monocytogenes; strain 2317 (EGD prfA del)) was 0.94 % (V/V) and the “MIC (MEC)” value (Listeria monocytogenes; strain 2374 (EGD perR ins)) was 0.94 % (V/V). The “MIC (MEC)” value (Listeria monocytogenes; strain 2375 (EGD perR del)) was 0.94 % (V/V), the “MIC (MEC)” value (Listeria monocytogenes; strain 4239) was 0.23 % (V/V) and the “MIC (MEC)” value (Listeria monocytogenes; strain 4446) was 0.47 % (V/V). For the same molecule, the “MIC (MEC)” value (Listeria monocytogenes; strain 4459) was 0.23 % (V/V), the “MIC (MEC)” value (Listeria monocytogenes; strain 4666) was 0.18 % (V/V) and the “MIC (MEC)” value (Listeria monocytogenes; strain 6895) was 0.35 % (V/V). For the same molecule, the “MIC (MEC)” value (Listeria monocytogenes; strain 7291) was 0.47 % (V/V), the “MIC (MEC)” value (Listeria monocytogenes; strain 7418) was 0.18 % (V/V) and the “MIC (MEC)” value (Listeria monocytogenes; strain EGD (wildtype)) was 0.47 % (V/V). The “MIC (MEC)” value (Listeria monocytogenes; strain H13-1) was 0.94 % (V/V), the “MIC (MEC)” value (Listeria monocytogenes; strain LO28 (wildtype)) was 0.47 % (V/V) and the “MIC (MEC)” value (Listeria monocytogenes; strain La22) was 0.23 % (V/V). For the same molecule, the “MIC (MEC)” value (Listeria monocytogenes; strain La111) was 0.94 % (V/V), the “MIC (MEC)” value (Listeria monocytogenes; strain M103-1) was 0.94 % (V/V) and the “MIC (MEC)” value (Listeria monocytogenes; strain N53-1) was 0.47 % (V/V). For the same molecule, the “MIC (MEC)” value (Listeria monocytogenes; strain No40-1) was 0.47 % (V/V), the “MIC (MEC)” value (Listeria monocytogenes; strain O57) was 0.47 % (V/V) and the “MIC (MEC)” value (Listeria monocytogenes; strain R479a) was 0.47 % (V/V). The “MIC (MEC)” value (Listeria monocytogenes; strain V518a) was 0.94 % (V/V).
